Assay results: patent US20170066717A1, “NEW PHENYLAZETIDINECARBOXYLATE OR -CARBOXAMIDE COMPOUNDS” (INVENTIVA, priority 2014, published 2017)

Key:
[1] = target: T1, NURR-1/RXRα (Homo sapiens, UniProt P19793); experiment: Transactivation test, NURR-1-Gal4/RXRα, luciferase reporter in Cos-7 cells; assay type: cell-based; conditions: for Emax: COS-7, induction level relative to reference XCT0135908 at 2×10^−5 M (=100%), read-out: hNurr1_RXRaFL Emax (%); for EC50: Cos-7 cells, NURR-1-Gal4/RXRα, luciferase reporter, read-out: hNurr1_RXRaFL EC50
T1 construct: expressed in transfected cells; host or cells: Cos-7 cells

[2] = target: T2, NURR-1/RXRγ (Homo sapiens, UniProt P48443); experiment: Transactivation test, NURR-1-Gal4/RXRγ, luciferase reporter in Cos-7 cells; assay type: cell-based; conditions: for Emax: COS-7, induction level relative to reference XCT0135908 at 2×10^−5 M (=100%), read-out: hNurr1_RXRgFL Emax (%); for EC50: Cos-7 cells, NURR-1-Gal4/RXRγ, luciferase reporter, read-out: hNurr1_RXRgFL EC50
T2 construct: expressed in transfected cells; host or cells: Cos-7 cells
T2 sequence (P48443 whole entry, the tested form may be a part): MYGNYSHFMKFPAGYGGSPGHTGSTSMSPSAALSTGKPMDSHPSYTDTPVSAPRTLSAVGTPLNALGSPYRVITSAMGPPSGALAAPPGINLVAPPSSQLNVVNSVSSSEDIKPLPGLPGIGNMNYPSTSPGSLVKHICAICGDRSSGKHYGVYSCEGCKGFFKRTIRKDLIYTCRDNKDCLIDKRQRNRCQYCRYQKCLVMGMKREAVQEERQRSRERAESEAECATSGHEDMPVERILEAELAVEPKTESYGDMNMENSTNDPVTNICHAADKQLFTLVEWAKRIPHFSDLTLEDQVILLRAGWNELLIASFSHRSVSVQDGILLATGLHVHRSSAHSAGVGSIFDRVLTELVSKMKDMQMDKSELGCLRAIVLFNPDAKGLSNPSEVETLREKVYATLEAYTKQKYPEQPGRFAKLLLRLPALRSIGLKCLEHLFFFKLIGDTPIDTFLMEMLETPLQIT
T2 sequence (P43354 whole entry partner, the tested form may be a part): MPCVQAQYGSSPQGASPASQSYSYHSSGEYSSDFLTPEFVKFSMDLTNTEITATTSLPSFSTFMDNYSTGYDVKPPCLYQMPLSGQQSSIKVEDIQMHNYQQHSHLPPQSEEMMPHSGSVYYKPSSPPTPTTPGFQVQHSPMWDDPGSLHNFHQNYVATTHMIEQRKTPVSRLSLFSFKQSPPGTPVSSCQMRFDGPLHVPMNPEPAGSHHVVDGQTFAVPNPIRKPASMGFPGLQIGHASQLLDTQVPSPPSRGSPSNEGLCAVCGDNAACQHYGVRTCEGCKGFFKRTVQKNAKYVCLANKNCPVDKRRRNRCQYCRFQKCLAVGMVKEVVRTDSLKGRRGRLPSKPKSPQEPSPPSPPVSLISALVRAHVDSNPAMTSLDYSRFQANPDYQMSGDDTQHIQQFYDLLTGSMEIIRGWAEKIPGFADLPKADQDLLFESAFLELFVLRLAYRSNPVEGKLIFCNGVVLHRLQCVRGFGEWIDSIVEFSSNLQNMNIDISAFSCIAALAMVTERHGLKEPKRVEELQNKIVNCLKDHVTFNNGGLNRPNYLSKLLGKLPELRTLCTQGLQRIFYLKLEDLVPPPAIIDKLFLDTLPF
T2 sequence (P04386 1-147 partner limits assumed): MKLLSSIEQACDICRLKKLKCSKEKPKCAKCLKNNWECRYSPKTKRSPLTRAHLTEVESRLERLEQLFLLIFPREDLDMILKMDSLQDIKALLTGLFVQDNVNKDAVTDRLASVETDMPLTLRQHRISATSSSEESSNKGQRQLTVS

T1 sequence (P19793 whole entry, the tested form may be a part): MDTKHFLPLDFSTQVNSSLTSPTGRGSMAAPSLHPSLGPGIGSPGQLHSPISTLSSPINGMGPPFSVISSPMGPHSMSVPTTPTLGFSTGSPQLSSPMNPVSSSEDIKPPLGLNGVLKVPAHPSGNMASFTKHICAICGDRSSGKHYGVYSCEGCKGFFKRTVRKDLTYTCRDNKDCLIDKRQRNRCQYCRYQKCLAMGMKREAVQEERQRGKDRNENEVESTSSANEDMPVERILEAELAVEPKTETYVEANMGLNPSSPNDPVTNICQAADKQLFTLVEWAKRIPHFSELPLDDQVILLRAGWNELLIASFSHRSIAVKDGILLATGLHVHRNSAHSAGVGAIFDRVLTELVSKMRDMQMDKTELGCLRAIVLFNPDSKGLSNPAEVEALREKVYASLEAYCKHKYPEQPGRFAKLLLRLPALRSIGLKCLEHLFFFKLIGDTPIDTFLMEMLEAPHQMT
T1 sequence (P43354 whole entry partner, the tested form may be a part): as the sequence (P43354 whole entry partner, the tested form may be a part) above
T1 sequence (P04386 1-147 partner limits assumed): as the sequence (P04386 1-147 partner limits assumed) above

Row | Compound | Emax [1] [%] | EC50 [1] [nM] | Emax [2] [%] | EC50 [2] [nM] | melting point [°C]
1 | O=C(O)C1CN(c2cccc(-c3cc(C(F)(F)F)cc4c3NCC3(CCC3)O4)c2)C1 [Example 62, 1-[3-[7-(trifluoromethyl)spiro[3,4-dihydro-1,4-benzoxazine-2,1′-cyclobutane]-5-yl]phenyl]azetidine-3-carboxylic acid] | 97 | 4 | 107 | 7 | 80 to 85
2 | CCC1CNc2c(cc(C(F)(F)F)cc2-c2cccc(N3CC(C(=O)O)C3)c2)O1 (stereo not shown) [Example 66, 1-[3-[2-ethyl-7-(trifluoromethyl)-3,4-dihydro-2H-1,4-benzoxazin-5-yl]phenyl]azetidine-3-carboxylic acid] | 98 | 8 | 95 | 25 | 115 to 121
3 | Cc1ccc(N2CC(C(=O)O)C2)cc1-c1cccc(C(C)C)c1 [Example 69, 1-[3-(3-isopripylphenyl)-4-methylphenyl]azetidine-3-carboxylic acid] | 63 | 146 | 57 | 142 | 71 to 76
4 | CC(C)c1cc2c(c(-c3cccc(N4CC(C(=O)O)C4)c3)c1)C(=O)CC(C)(C)O2 [Example 71, 1-[3-(7-isopropyl-2,2-dimethyl-4-oxochroman-5-yl)phenyl]azetidine-3-carboxylic acid] | 96 | 326 | 101 | 435 | 70 to 88
5 | CCc1noc2cc(C(C)C)cc(-c3cccc(N4CC(C(=O)O)C4)c3)c12 [Example 72, 1-[3-(3-ethyl-6-isopropy;-1,2-benzoxazol-4-yl)phenyl]azetidine-3-carboxylic acid] | 97 | 7 | 112 | 40 | 63 to 69
6 | O=C(O)C1CN(c2cccc(-c3cc(C(F)(F)F)nc4cc(Cl)ccc34)c2)C1 [Example 82, 1-[3-[7-chloro-2-(trifluoromethyl)-4-quinolyl]phenyl]azetidine-3-carboxylic acid] | 110 | 31 | 99 | 72 | 98 to 101
7 | Cc1cc2c(cc1-c1cccc(N3CC(C(=O)O)C3)c1)C(C)(C)CCC2(C)C [Example 85, 1-[3-(1,1,4,4,7-pentamethyltetralin-6-yl)phenyl]azetidine-3-carboxylic acid] | 112 | 19 | 116 | 49 | 130 to 141
8 | CCc1cc2c(cc1-c1cccc(N3CC(C(=O)O)C3)c1)C(C)(C)CCC2(C)C [Example 86, 1-[3-(7-ethyl-1,1,4,4,-tetramethyltetralin-6-yl)phenyl]azetidine-3-carboxylic acid] | 107 | 6 | 97 | 16 | 78 to 88
9 | Cc1cc(N2CC(C(=O)O)C2)cc(N2CC(C)(C)Oc3cc(C(F)(F)F)ccc32)c1 [Example 116, 1-[3-[2,2-dimethyl-7-(trifluoromethyl)-3H-1,4-benzoxazin-4-yl]-5-methylphenyl]azetidine-3-carboxylic acid] | 111 | 2 | 115 | 1 | 93 to 98
10 | CC1(C)CN(c2cccc(N3CC(C(=O)O)C3)c2)c2ccccc2O1 [Example 119, 1-[3-(2,2-dimethyl-3H-1,4-benzoxazin-4-yl)phenyl]azetidine-3-carboxylic acid] | 101 | 238 | 94 | 512 | 59 to 64
11 | CC1(C)Oc2cc(C(F)(F)F)ccc2N(c2cccc(N3CC(C(=O)O)C3)c2)C1=O [Example 120, 1-[3-[2,2-dimethyl-3-oxo-7-(trifluoremethyl)-1,4-benzoxazin-4-yl]phenyl]azetidine-3-carboxylic acid] | 108 | 20 | 112 | 34 | 80 to 86
12 | CCC1Oc2cc(C(F)(F)F)ccc2N(c2cccc(N3CC(C(=O)O)C3)c2)C1=O (stereo not shown) [Example 123, 1-[3-[2-ethyl-3-oxo-7-(trifluromethyl)-1,4-benzoxazin-4-yl]phenyl]azetidine-3-carboxylic acid] | 90 | 121 | 77 | 37 | 148 to 152
13 | CC1COc2cc(C(F)(F)F)ccc2N1c1cccc(N2CC(C(=O)O)C2)c1 (stereo not shown) [Example 124, 1-[3-[3-methyl-7-(trifluoromethyl)-2,3-dihydro-1,4-benzoxazin-4-yl]phenyl]azetidine-3-carboxyltc add] | 137 | 19 | 139 | 29 | 62 to 70
14 | O=C(O)C1CN(c2cccc(-n3cc(CC4CCC4)c4cc(C(F)(F)F)ccc43)c2)C1 [Example 126, 1-[3-[3-(cyclobutylmethyl)-5-(trifluromethyl)indol-1-yl]phenyl]azetidine-3-carboxylc acid] | 128 | 1 | 116 | 3 | 58 to 64
15 | O=C(O)C1CN(c2cccc(-n3cc(CC4CCOC4)c4cc(C(F)(F)F)ccc43)c2)C1 (stereo not shown) [Example 128, 1-[3-[3-(tetrahydrofuran-3-ylmethyl)-5-(trifluromethyl)indol-1-yl]phenyl]adetidine-3-carboxylic acid] | 110 | 3 | 105 | 6 | 63 to 67
16 | O=C(O)C1CN(c2cccc(-n3cc(CN4CCOCC4)c4cc(C(F)(F)F)ccc43)c2)C1 [Example 132, 1-[3-[3-(morpholinomethyl)-5-(trifluoromethyl)indol-1-yl]phenyl]azetidine-3-carboxylic acid] | 97 | 61 | 132 | 133 | 93 to 98
17 | COCCNCc1cn(-c2cccc(N3CC(C(=O)O)C3)c2)c2ccc(C(F)(F)F)cc12 [Example 133, 1-[3-[3-[(2-methoxyethylamino)methyl]-5-(trifluoromethyl)indol-1-yl]phenyl]azetidine-3-carboxylic acid] | 93 | 1020 | 61 | 1980 | 116 to 121
18 | CC(C)N(C)Cc1cn(-c2cccc(N3CC(C(=O)O)C3)c2)c2ccc(C(F)(F)F)cc12 [Example 134, 1-[3-[3-[[iisopropyl(methyl)amino]methyl]-5-(trifluoromethyl)indol-1-yl]phenyl]azetidine-3-carboxylic acid] | 89 | 227 | 108 | 664 | 88 to 95
19 | O=C(O)C1CN(c2cccc(-n3cc(S(=O)(=O)c4ccccc4)c4cc(C(F)(F)F)ccc43)c2)C1 [Example 135, 1-[3-[3-(benzenesulfonyl)-5-(trifluoromethyl)indol-1-yl]phenyl]azetidine-3-carboxylic acid] | 77 | 34 | 83 | 65 | 150 to 153
20 | O=C(O)C1CN(c2cccc(N3CC4(CCOCC4)c4cc(C(F)(F)F)ccc43)c2)C1 [Example 141, 1-[3-[5-(trifluoromethyl)spiro[indoline-3,4′-tetrahydropyran]-1-yl]phenyl]azetidine-3-carboxylic acid] | 92 | 140 | 113 | 199 | 154 to 162
21 | O=C(O)C1CN(c2cccc(N3C(=O)C4(CCCC4)c4cc(C(F)(F)F)ccc43)c2)C1 [Example 142, 1-[3-[2′-oxo-5′-(trifluoromethyl)spiro[cyclopentane-1,3′-indoline]-1′-yl]phenyl]azetidine-3-carboxylic acid] | 130 | 11 | 148 | 22 | 87 to 91
22 | O=C(O)C1CN(c2cccc(N3c4ccc(C(F)(F)F)cc4C4CC43)c2)C1 (stereo not shown) [Example 143, 1-[3-[5-(trifluoromethyl)-1a,6b-dihydro-1H-cyclopropa[b]indol-2-yl]phenyl]azetidine-3-carboxylic acid] | 97 | 18 | – | 45 | 67 to 71
23 | CC1(C)CCC2C(C1)c1cc(C(F)(F)F)ccc1N2c1cccc(N2CC(C(=O)O)C2)c1 (stereo not shown) [Example 145, 1-[3-[3,3-dimethyl-6-(trifluoromethyl)-2,4,4a,9a-tetrahydro-1H-carbazol-9-yl]phenyl]azetidine-3-carboxylic acid] | 98 | 4 | 96 | 6 | 96 to 100
24 | O=C(O)C1CN(c2cccc(N3c4ccc(C(F)(F)F)cc4C4CCCC43)c2)C1 (stereo not shown) [Example 146, 1-[3-[7-(trifluoromethyl)-2,3,3a,8b-tetrahydro-1H-cyclopenta[b]indol-4-yl]phenyl]azetidine-3-carboxylic acid] | 96 | 10 | 107 | 17 | 61 to 65
25 | CC(C)Cn1c(=O)n(-c2cccc(N3CC(C(=O)O)C3)c2)c2ccc(C(F)(F)F)cc21 [Example 148] | 122 | 31 | 130 | 56 | 134 to 144
